Laboratory results from patent US7659404B2, “Broad spectrum 2-(substituted-amino)-benzothiazole sulfonamide HIV protease inhibitors” (Tibotec Pharmaceuticals Ltd., priority 2001, dated 2010).
Read-outs that look alike come from different tables or passages of the source.

Tests used:
HIV-1 strain LAI = experiment: Cellular anti-HIV assay in MT4 cells (MTT), wild type laboratory strain; assay type: cell-based; details: read-out: EC50 value against HIV-1 strain LAI
Description: The compounds of the present invention were examined for anti-viral activity in a cellular assay. […] The cellular assay was performed according to the following procedure.
Cellular Assay Experimental Method:
(§1) HIV- or mock-infected MT4 cells were incubated for five days in the presence of various concentrations of the inhibitor. At the end of the incubation period, all HIV-infected cells have been killed by the replicating virus in the control cultures in the absence of any inhibitor. Cell viability is measured by measuring the concentration of MTT, a yellow, water soluble tetrazolium dye that is converted to a purple, water insoluble formazan in the mitochondria of living cells only. Upon solubilization of the resulting formazan crystals with isopropanol, the absorbance of the solution is monitored at 540 nm. The values correlate directly to the number of living cells remaining in the culture at the completion of the five day incubation. The inhibitory activity of the compound was monitored on the virus-infected cells and was expressed as EC50 and EC90. These values represent the amount of the compound required to protect 50% and 90%, respectively, of the cells from the cytopathogenic effect of the virus. The toxicity of the compound was measured on the mock-infected cells and was expressed as CC50, which represents the concentration of compound required to inhibit the growth of the cells by 50%. The selectivity index (SI) (ratio CC50/EC50) is an indication of the selectivity of the anti-HIV activity of the inhibitor.

virus strain F (R13025) = experiment: microbe, parasite or virus in culture; assay type: cell-based, HIV; details: FR=EC50(mutant strain)/EC50(HIV-1 strain LAI); strain F
Method in brief: (§2)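 HIV-infected MT4 cells were incubated five days with inhibitor, and viability was read by MTT reduction at 540 nm. EC50/EC90 are the concentrations protecting 50%/90% of cells from viral cytopathic effect. Fold resistance is EC50 against the clinical isolate divided by EC50 against HIV-1 LAI.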

virus strain S (R13080) = experiment: microbe, parasite or virus in culture; assay type: cell-based, HIV; details: FR=EC50(mutant strain)/EC50(HIV-1 strain LAI); strain S
Method in brief: as §2

[1] = test system: clinically isolated HIV strain H; assay type: cell-based; details: FR=EC50(mutant strain)/EC50(HIV-1 strain LAI)
Method in brief: as §2

[2] = test system: clinically isolated HIV strain O; assay type: cell-based; details: FR=EC50(mutant strain)/EC50(HIV-1 strain LAI)
Method in brief: as §2

[3] = test system: clinically isolated HIV strain T; assay type: cell-based; details: FR=EC50(mutant strain)/EC50(HIV-1 strain LAI)
Method in brief: as §2

[4] = test system: clinically isolated HIV strain J; assay type: cell-based; details: FR=EC50(mutant strain)/EC50(HIV-1 strain LAI)
Method in brief: as §2

[5] = test system: clinically isolated HIV strain I; assay type: cell-based; details: FR=EC50(mutant strain)/EC50(HIV-1 strain LAI)
Method in brief: as §2

[6] = test system: clinically isolated HIV strain B; experiment: Antiviral spectrum, cellular assay (fold resistance), strain B; assay type: cell-based; details: FR=EC50(mutant strain)/EC50(HIV-1 strain LAI)
Description: as §1
(§3) Because of the increasing emergence of drug resistant HIV strains, the present compounds were tested for their potency against clinically isolated HIV strains harboring several mutations. These mutations are associated with resistance to protease inhibitors and result in viruses that show various degrees of phenotypic cross-resistance to the currently commercially available drugs such as for instance saquinavir, ritonavir, nelfinavir, indinavir and amprenavir.
(§4) As a measure of the broad spectrum activity of the present compounds, the fold resistance (FR) defined as FR=EC50(mutant strain)/EC50(HIV-1 strain LAI).

[7] = test system: clinically isolated HIV strain P; experiment: Antiviral spectrum, cellular assay (fold resistance), strain P; assay type: cell-based; details: FR=EC50(mutant strain)/EC50(HIV-1 strain LAI)
Description: as §1, §3, §4

[8] = test system: clinically isolated HIV strain K; experiment: Antiviral spectrum, cellular assay (fold resistance), strain K; assay type: cell-based; details: FR=EC50(mutant strain)/EC50(HIV-1 strain LAI)
Description: as §1, §3, §4

[9] = test system: clinically isolated HIV strain Q; experiment: Antiviral spectrum, cellular assay (fold resistance), strain Q; assay type: cell-based; details: FR=EC50(mutant strain)/EC50(HIV-1 strain LAI)
Description: as §1, §3, §4

[10] = test system: clinically isolated HIV strain A; experiment: Antiviral spectrum, cellular assay (fold resistance), strain A; assay type: cell-based; details: FR=EC50(mutant strain)/EC50(HIV-1 strain LAI)
Description: as §1, §3, §4

[11] = test system: clinically isolated HIV strain L; experiment: Antiviral spectrum, cellular assay (fold resistance), strain L; assay type: cell-based; details: FR=EC50(mutant strain)/EC50(HIV-1 strain LAI)
Description: as §1, §3, §4

[12] = test system: clinically isolated HIV strain M; experiment: Antiviral spectrum, cellular assay (fold resistance), strain M; assay type: cell-based; details: FR=EC50(mutant strain)/EC50(HIV-1 strain LAI)
Description: as §1, §3, §4

[13] = test system: clinically isolated HIV strain D; experiment: Antiviral spectrum, cellular assay (fold resistance), strain D; assay type: cell-based; details: FR=EC50(mutant strain)/EC50(HIV-1 strain LAI)
Description: as §1, §3, §4

[14] = test system: clinically isolated HIV strain C; experiment: Antiviral spectrum, cellular assay (fold resistance), strain C; assay type: cell-based; details: FR=EC50(mutant strain)/EC50(HIV-1 strain LAI)
Description: as §1, §3, §4

[15] = test system: clinically isolated HIV strain R; experiment: Antiviral spectrum, cellular assay (fold resistance), strain R; assay type: cell-based; details: FR=EC50(mutant strain)/EC50(HIV-1 strain LAI)
Description: as §1, §3, §4

[16] = test system: clinically isolated HIV strain N; experiment: Antiviral spectrum, cellular assay (fold resistance), strain N; assay type: cell-based; details: FR=EC50(mutant strain)/EC50(HIV-1 strain LAI)
Description: as §1, §3, §4

[17] = test system: clinically isolated HIV strain G; experiment: Antiviral spectrum, cellular assay (fold resistance), strain G; assay type: cell-based; details: FR=EC50(mutant strain)/EC50(HIV-1 strain LAI)
Description: as §1, §3, §4

[18] = test system: clinically isolated HIV strain E; experiment: Antiviral spectrum, cellular assay (fold resistance), strain E; assay type: cell-based; details: FR=EC50(mutant strain)/EC50(HIV-1 strain LAI)
Description: as §1, §3, §4

[19] = Human immunodeficiency virus 1, MT4, 120 h
[20] = Human immunodeficiency virus 1, 120 h, MT4 cells, five days, MTT

SMILES	EC50 (HIV-1 strain LAI; [19])	fold resistance (FR), strain F (virus strain F (R13025))	fold resistance (FR), strain S (virus strain S (R13080))	fold resistance (FR), strain H [1]	fold resistance (FR), strain O [2]	fold resistance (FR), strain T [3]	fold resistance (FR), strain J [4]	fold resistance (FR), strain I [5]	EC50 (HIV-1 strain LAI; [20])	further results
CC(C)CN(CC(O)C(Cc1ccccc1)NC(=O)OC1COC2OCCC12)S(=O)(=O)c1ccc2nc(NCC[N+](C)(C)[O-])sc2c1 (stereo not shown) [Compound 27]	> 0.5 µM	1.4	5.1	1.2	0.6	5.4	0.7	1.3		
CC(C)CN(CC(O)C(Cc1ccccc1)NC(=O)OC1COCC1N(C)C)S(=O)(=O)c1ccc2nc(NCCN(C)C)sc2c1 (stereo not shown) [Compound 44]	0.05 to 0.5 µM	80.2	89.3	29.4	11.2	89.3	29.5	7.5		
CC(=O)N(C)c1nc2ccc(S(=O)(=O)N(Cc3ccccn3)CC(O)C(Cc3ccccc3)NC(=O)OC3COC4OCCC34)cc2s1 (stereo not shown) [Compound 33]		7.6	467.3	6.8	3.4	467.3	5.9	7.1	< 0.05 µM	
CC(=O)N(CCN1CCCC1)c1nc2ccc(S(=O)(=O)N(CC(C)C)CC(O)C(Cc3ccccc3)NC(=O)OC3COC4OCCC34)cc2s1 (stereo not shown) [Compound 19]		2.4	2.2	2.1	0.5	10.5	0.6	1.1	< 0.05 µM	
CC(C)CN(CC(O)C(Cc1ccccc1)NC(=O)OC1CCOC1)S(=O)(=O)c1ccc2nc(NCCN(C)C)sc2c1 (stereo not shown) [Compound 56]	< 0.05 µM	33.1	67.1	4.6	2.1	509.6	2.8	3.2		
CC(C)CN(CC(O)C(Cc1ccccc1)NC(=O)OC1COC2OCCC12)S(=O)(=O)c1ccc2nc(NC(=O)CN(C)C)sc2c1 (stereo not shown) [Compound 11]		0.7	1.1	0.9	0.7	7.3	0.4	0.5	< 0.05 µM	fold resistance (FR), strain B [6]: 0.4; fold resistance (FR), strain P [7]: 0.3; fold resistance (FR), strain K [8]: 0.4; fold resistance (FR), strain Q [9]: 0.0; fold resistance (FR), strain A [10]: 0.3; fold resistance (FR), strain L [11]: 0.3; fold resistance (FR), strain M [12]: 0.4; fold resistance (FR), strain D [13]: 0.3; fold resistance (FR), strain C [14]: 0.5; fold resistance (FR), strain R [15]: 0.5; fold resistance (FR), strain N [16]: 1.6; fold resistance (FR), strain G [17]: 0.5
CCN1CCCC1CNc1nc2ccc(S(=O)(=O)N(CC(C)C)C[C@@H](O)[C@H](Cc3ccccc3)NC(=O)O[C@H]3CO[C@H]4OCC[C@H]43)cc2s1 (stereo partly shown) [Compound 93]		1.1	4.68						< 0.05 µM	
CC(C)CN(C[C@@H](O)[C@H](Cc1ccccc1)NC(=O)OC1COC2OCCC12)S(=O)(=O)c1ccc2nc(NCCN(C)C)sc2c1 (mixture of isomers) [Compound 4]		2.2	2.9	1.9	0.5	48.8	0.5	1.2	< 0.05 µM	
CC(C)CN(CC(O)C(Cc1ccccc1)NC(=O)OC1COC2OCCC12)S(=O)(=O)c1ccc2nc(NC(=O)CN(C)C)sc2c1 (mixture of isomers) [Compound 3]		1.1	1.8	1.0	1.0	34.2		0.8		fold resistance (FR), strain P [7]: 0.4; fold resistance (FR), strain Q [9]: 0.5; fold resistance (FR), strain E [18]: 0.4; fold resistance (FR), strain A [10]: 0.4; fold resistance (FR), strain L [11]: 0.3; fold resistance (FR), strain D [13]: 0.8; fold resistance (FR), strain C [14]: 0.4; fold resistance (FR), strain R [15]: 0.5; fold resistance (FR), strain N [16]: 2.3; fold resistance (FR), strain G [17]: 0.4
CC(C)CN(CC(O)C(Cc1ccccc1)NC(=O)OC1COC2OCCC12)S(=O)(=O)c1ccc2nc(NC(=O)CN3CCNCC3)sc2c1 (mixture of isomers) [Compound 5]		0.5	0.6	0.6	0.4	2.6	0.3	0.6		
CC(=O)Nc1nc2ccc(S(=O)(=O)N(CCNc3ccccn3)CC(O)C(Cc3ccccc3)NC(=O)OC3COC4OCCC34)cc2s1 (stereo not shown) [Compound 29]	0.05 to 0.5 µM									
CC(=O)N(C)c1nc2ccc(S(=O)(=O)N(Cc3ccccn3)CC(O)C(Cc3ccccc3)NC(=O)OCc3c(C)cccc3C)cc2s1 (stereo not shown) [Compound 31]	> 0.5 µM									
Cc1cccc(C)c1OCC(=O)N[C@@H](Cc1ccccc1)[C@H](O)CN(CC(C)C)S(=O)(=O)c1ccc2nc(NCCN3CCCC3)sc2c1 [Compound 46]		4.7	7.1	1.3	3.2	44.4	2.8	3.3		
Cc1c(N)cccc1C(=O)N[C@@H](Cc1ccccc1)[C@H](O)CN(CC(C)C)S(=O)(=O)c1ccc2nc(NCCN(C)C)sc2c1 [Compound 39]		19.7	16.5	2.3	1.7	249.9	2.2	2.4		
Cc1cccc(C)c1OCC(=O)N[C@@H](Cc1ccccc1)[C@H](O)CN(CC(C)C)S(=O)(=O)c1ccc2nc(NCCN(C)C)sc2c1 [Compound 40]		7.2	12.8	2.1	3.2	87.8	2.7	6.4		
CC(C)CN(C[C@@H](O)[C@H](Cc1ccccc1)NC(=O)OCc1cccnc1)S(=O)(=O)c1ccc2nc(NCCN(C)C)sc2c1 [Compound 38]		12.4	11.9	2.0	1.2	230.4	3.9	1.1		
